Source: patent publication US11919887B2, “Substituted tetrahydrofurans as modulators of sodium channels” (Vertex Pharmaceuticals Incorporated, priority 2019, dated 2024)
Where two headings read alike, the source gives them in different places.

Target: human Nav 1.8 (Homo sapiens, UniProt Q9Y5Y9)
Test: E-VIPR assay detecting and measuring Nav inhibition (HEK cells expressing truncated human Nav 1.8)
Assay type: cell-based
Settings: read-out: IC50
Text: Sodium ion channels are voltage-dependent proteins that can be activated by inducing membrane voltage changes by applying electric fields. The electrical stimulation instrument and methods of use, referred to as E-VIPR, are described in International Publication No. WO 2002/008748 A3 and C.-J. Huang et al. Characterization of voltage-gated sodium channel blockers by electrical stimulation and fluorescence detection of membrane potential, 24 Nature Biotech. 439-46 (2006), both of which are incorporated by reference in their entirety. The instrument comprises a microtiter plate handler, an optical system for exciting the coumarin dye while simultaneously recording the coumarin and oxonol emissions, a waveform generator, a current- or voltage-controlled amplifier, and parallel electrode pairs that are inserted into assay plate wells. Under integrated computer control, this instrument passes user-programmed electrical stimulus protocols to cells within the wells of the microtiter plate.
16-20 hours prior to running the assay on E-VIPR, HEK cells expressing a truncated form of human Nav 1.8 with full channel activity were seeded into microtiter 384-well plates, pre-coated with matrigel, at a density of 25,000 cells per well. 2.5-5% KIR2.1 Bacmam virus was added to the final cell suspension before seeding into cell plates. HEK cells were grown in Dulbecco's Modified Eagle's Medium (DMEM) supplemented with 10% FBS (Fetal Bovine Serum, qualified; Sigma #F4135), 1% NEAA (Non-Essential Amino Acids, Gibco #11140), 1% HEPES (Gibco #15630), 1% Pen-Strep (Penicillin-Streptomycin; Gibco #15140) and 5 μg/ml Blasticidin (Gibco #R210-01). Cells were expanded in vented cap cell culture flasks, with 90-95% humidity and 5% CO2.
Human Serum (HS, Millipore #S1P1-01KL, or Sigma SLBR5469V and SLBR5470V as a 50%/50% mixture, for 25% assay final concentration)
Bath1 Buffer: • Sodium Chloride 160 mM (9.35 g/L), Potassium Chloride, 4.5 mM (0.335 g/L), Glucose 10 mM (1.8 g/L), Magnesium Chloride (Anhydrous) 1 mM (0.095 g/L), Calcium Chloride 2 mM (0.222 g/L), HEPES 10 mM (2.38 g/L) in water.
Na/TMA Cl Bath1 Buffer: • Sodium Chloride 96 mM (5.61 g/L), Potassium Chloride 4.5 mM (0.335 g/L), Tetramethylammonium (TMA)-Cl 64 mM (7.01 g/L), Glucose 10 mM (1.8 g/L), Magnesium Chloride (Anhydrous) 1 mM (0.095 g/L), Calcium Chloride 2 mM (0.222 g/L) HEPES 10 mM (2.38 g/L) in water.
Hexyl Dye Solution (2× concentration): • Bath1 Buffer containing 0.5% β-cyclodextrin (made fresh prior to each use, Sigma #C4767), 8 μM CC2-DMPE and 2 μM DiSBAC6(3). The solution was made by adding 10% Pluronic F127 stock equal to combined volumes of CC2-DMPE and DiSBAC6(3). The order of preparation was first mix Pluronic and CC2-DMPE, then add DiSBAC6(3), then while vortexing add Bath1/β-Cyclodextrin.
Compound Loading Buffer (2×concentration): Na/TMA Cl Bath1 Buffer containing HS (omitted in experiments run in the absence of human serum (HS)) 50%, VABSC-1 1 mM, BSA 0.2 mg/ml (in Bath-1), KCl 9 mM, DMSO 0.75%.
Assay Protocol (7 Key Steps): • 1) To reach the final concentration in each well, 400 nL of each compound was pre-spotted (in neat DMSO) into polypropylene compound plates at 250×desired final concentration from an intermediate stock concentration of 0.075 mM, in an 11 point dose response, 3-fold dilution, resulting in a top dose of 300 nM final concentration in the cell plate. Vehicle control (neat DMSO), and positive control (an established Nav1.8 inhibitor, 25 μM final in assay in DMSO) were added manually to the outermost columns of each plate respectively. The compound plate was backfilled with 45 μL per well of Compound Loading Buffer resulting in a 250 fold dilution of compound following a 1:1 transfer of compound into the cell plate (see Step 6). Final DMSO concentration for all wells in the assay was 0.625% (0.75% DMSO was supplemented to the Compound Loading Buffer for a final DMSO concentration of 0.625%). […]

[1] = in the Presence of Human Serum in the E-VIPR Assay
[2] = in the Absence of Human Serum in the E-VIPR Assay

human Nav 1.8, sequence (Q9Y5Y9 whole entry, looked up, the tested form may be a part): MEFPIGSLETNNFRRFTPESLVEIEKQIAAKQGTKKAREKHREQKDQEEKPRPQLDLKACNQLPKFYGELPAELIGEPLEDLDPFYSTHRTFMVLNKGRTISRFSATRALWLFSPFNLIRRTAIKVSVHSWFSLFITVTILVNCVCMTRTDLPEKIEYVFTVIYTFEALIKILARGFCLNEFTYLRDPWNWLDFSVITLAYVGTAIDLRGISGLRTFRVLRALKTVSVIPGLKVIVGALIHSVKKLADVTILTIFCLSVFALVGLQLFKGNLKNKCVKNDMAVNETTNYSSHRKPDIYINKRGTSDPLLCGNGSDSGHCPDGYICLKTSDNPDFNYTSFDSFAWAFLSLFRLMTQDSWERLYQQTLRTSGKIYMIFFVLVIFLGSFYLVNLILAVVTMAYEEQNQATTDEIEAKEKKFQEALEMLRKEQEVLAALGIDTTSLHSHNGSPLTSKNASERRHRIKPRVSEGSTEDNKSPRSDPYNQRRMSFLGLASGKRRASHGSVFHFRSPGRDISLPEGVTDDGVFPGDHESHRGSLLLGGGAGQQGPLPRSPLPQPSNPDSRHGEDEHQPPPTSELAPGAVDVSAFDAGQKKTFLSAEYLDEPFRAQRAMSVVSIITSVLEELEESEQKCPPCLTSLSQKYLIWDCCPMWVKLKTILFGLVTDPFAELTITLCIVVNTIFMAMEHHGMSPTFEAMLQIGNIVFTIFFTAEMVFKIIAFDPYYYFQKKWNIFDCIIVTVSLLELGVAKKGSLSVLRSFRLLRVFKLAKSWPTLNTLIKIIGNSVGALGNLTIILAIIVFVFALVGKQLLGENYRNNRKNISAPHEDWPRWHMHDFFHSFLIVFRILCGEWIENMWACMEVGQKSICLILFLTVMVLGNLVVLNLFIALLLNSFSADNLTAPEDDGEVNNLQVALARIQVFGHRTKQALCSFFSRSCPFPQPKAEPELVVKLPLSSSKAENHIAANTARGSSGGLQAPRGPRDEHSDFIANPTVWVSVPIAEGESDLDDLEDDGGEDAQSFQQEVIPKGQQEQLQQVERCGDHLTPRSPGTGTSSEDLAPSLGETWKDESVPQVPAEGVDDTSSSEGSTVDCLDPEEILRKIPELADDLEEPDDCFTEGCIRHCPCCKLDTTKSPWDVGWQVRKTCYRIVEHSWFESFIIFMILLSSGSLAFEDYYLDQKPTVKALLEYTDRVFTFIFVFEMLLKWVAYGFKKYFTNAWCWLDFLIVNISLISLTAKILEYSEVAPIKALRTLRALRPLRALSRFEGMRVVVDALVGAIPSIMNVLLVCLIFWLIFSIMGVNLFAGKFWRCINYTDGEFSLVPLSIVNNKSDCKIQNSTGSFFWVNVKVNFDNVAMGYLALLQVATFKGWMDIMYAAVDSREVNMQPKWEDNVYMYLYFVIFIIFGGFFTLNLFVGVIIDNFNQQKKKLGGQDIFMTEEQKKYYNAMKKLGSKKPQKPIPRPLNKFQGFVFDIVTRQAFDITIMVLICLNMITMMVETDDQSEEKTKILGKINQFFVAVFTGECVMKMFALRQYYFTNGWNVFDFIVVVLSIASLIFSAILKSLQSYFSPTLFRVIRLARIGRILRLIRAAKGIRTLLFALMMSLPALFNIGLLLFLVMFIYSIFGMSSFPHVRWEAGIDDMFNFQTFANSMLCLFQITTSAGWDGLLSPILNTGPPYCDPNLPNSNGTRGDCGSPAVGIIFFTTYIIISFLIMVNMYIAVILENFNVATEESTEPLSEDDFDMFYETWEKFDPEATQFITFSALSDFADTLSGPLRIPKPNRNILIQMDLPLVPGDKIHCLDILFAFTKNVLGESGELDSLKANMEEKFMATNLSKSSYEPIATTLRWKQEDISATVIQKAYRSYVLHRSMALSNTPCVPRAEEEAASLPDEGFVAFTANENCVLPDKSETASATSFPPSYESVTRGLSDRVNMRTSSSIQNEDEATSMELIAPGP

Structure (SMILES)	IC50 [1] [µM]	IC50 [2] [µM]
COc1c([C@@H]2[C@@H](C(=O)Nc3ccnc(C(N)=O)c3)O[C@](C)(C(F)(F)F)[C@@H]2C2CC2)ccc(F)c1F (single isomer, unassigned) [Compound 94]	< 0.01	
COc1c([C@H]2[C@H](C(=O)Nc3ccnc(C(N)=O)c3)O[C@@](C)(C(F)(F)F)[C@H]2C2CC2)ccc(F)c1F (single isomer, unassigned) [Compound 95]	> 1	
COc1c([C@@H]2[C@@H](C(=O)Nc3ccnc(C(N)=O)c3)OC(C)(C)[C@H]2C)ccc(F)c1F (single isomer, unassigned) [Compound 101]	> 1	
COc1c([C@@H]2[C@@H](C)C(C)(C)O[C@H]2C(=O)Nc2ccnc(C(N)=O)c2)ccc(F)c1F (single isomer, unassigned) [Compound 102]	> 1	
COc1c([C@@H]2[C@@H](C)C(C)(C)O[C@H]2C(=O)Nc2ccnc(C(N)=O)c2)ccc(F)c1F (single isomer, unassigned) [Compound 103]	> 1	
COc1c([C@@H]2[C@@H](C(=O)Nc3ccnc(C(N)=O)c3)OC(C)(C)[C@H]2C)ccc(F)c1F (single isomer, unassigned) [Compound 104]	> 1	
COc1c([C@H]2[C@H](C(=O)Nc3ccnc(C(N)=O)c3)OC(C)(C)[C@H]2C)ccc(F)c1F (single isomer, unassigned) [Compound 105]	0.01 to 0.1	
COc1c([C@@H]2[C@@H](C(=O)Nc3ccnc(C(N)=O)c3)OC(C)(C)[C@@H]2C)ccc(F)c1F (single isomer, unassigned) [Compound 106]	> 1	
COc1c([C@H]2C[C@@H](C(F)(F)F)O[C@@H]2C(=O)Nc2ccnc(C(N)=O)c2)ccc(F)c1C (single isomer, unassigned) [Compound 111]	> 1	
COc1c([C@@H]2C[C@H](C(F)(F)F)O[C@H]2C(=O)Nc2ccnc(C(N)=O)c2)ccc(F)c1C (single isomer, unassigned) [Compound 112]	0.1 to 1	
COc1c([C@@H]2[C@@H](C(=O)Nc3ccnc(C(N)=O)c3)O[C@](C)(C(F)(F)F)[C@@H]2C)ccc(C(F)F)c1F (single isomer, unassigned) [Compound 135]		> 1
COc1c([C@H]2[C@H](C(=O)Nc3ccnc(C(N)=O)c3)O[C@@](C)(C(F)(F)F)[C@H]2C)ccc(C(F)F)c1F (single isomer, unassigned) [Compound 136]		< 0.01
COc1c([C@H]2[C@H](C(=O)Nc3ccnc(C(N)=O)c3)O[C@@](C)(C(F)(F)F)[C@H]2C)cccc1C(F)(F)F (single isomer, unassigned) [compound 42]		< 0.01
COc1c([C@@H]2[C@@H](C(=O)Nc3ccnc(C(N)=O)c3)O[C@](C)(C(F)(F)F)[C@@H]2C)cccc1C(F)(F)F (single isomer, unassigned) [compound 43]		0.1 to 1
C[C@@H]1[C@H](c2ccc(F)c(F)c2OC(F)F)[C@@H](C(=O)Nc2cccc(C(N)=O)c2)O[C@]1(C)C(F)(F)F (single isomer, unassigned) [compound 51]	> 1	
C[C@H]1[C@@H](c2ccc(F)c(F)c2OC(F)F)[C@H](C(=O)Nc2cccc(C(N)=O)c2)O[C@@]1(C)C(F)(F)F (single isomer, unassigned) [compound 52]	< 0.01	
C[C@@H]1[C@H](c2ccc(F)cc2OC(F)F)[C@@H](C(=O)Nc2ccnc(C(N)=O)c2)O[C@]1(C)C(F)(F)F (stereo in doubt) [Compound 1, rel-(2S,3R,4R,5S)-4-[[3-[2-(difluoromethoxy)-4-fluoro-phenyl]-4,5-dimethyl-5-(trifluoromethyl)tetrahydrofuran-2-carbonyl]amino]pyridine-2-carboxamide]	0.01 to 0.1	
C[C@H]1[C@@H](c2ccc(F)cc2OC(F)F)[C@H](C(=O)Nc2ccnc(C(N)=O)c2)O[C@@]1(C)C(F)(F)F (stereo in doubt) [Compound 2, rel-(2R,3S,4S,5R)-4-[[3-[2-(difluoromethoxy)-4-fluoro-phenyl]-4,5-dimethyl-5-(trifluoromethyl)tetrahydrofuran-2-carbonyl]amino]pyridine-2-carboxamide]	0.1 to 1	
COc1c([C@H]2C[C@@](C)(C(F)(F)F)O[C@@H]2C(=O)Nc2ccnc(C(N)=O)c2)ccc(F)c1F (stereo in doubt) [Compound 4, rel-(2S,3R,5S)-4-[[3-(3,4-difluoro-2-methoxy-phenyl)-5-methyl-5-(trifluoromethyl)tetrahydrofuran-2-carbonyl]amino]pyridine-2-carboxamide]	> 1	
COc1c([C@@H]2C[C@](C)(C(F)(F)F)O[C@H]2C(=O)Nc2ccnc(C(N)=O)c2)ccc(F)c1F (stereo in doubt) [Compound 5, rel-(2R,3S,5R)-4-[[3-(3,4-difluoro-2-methoxy-phenyl)-5-methyl-5-(trifluoromethyl)tetrahydrofuran-2-carbonyl]amino]pyridine-2-carboxamide]	0.01 to 0.1	
CNC(=O)c1cc(NC(=O)[C@@H]2O[C@](C)(C(F)(F)F)[C@@H](C)[C@H]2c2ccc(F)c(F)c2OC(F)F)ccn1 (stereo in doubt) [Compound 12, rel-(2R,3S,4S,5S)-4-[[3-[2-(difluoromethoxy)-3,4-difluoro-phenyl]-4,5-dimethyl-5-(trifluoromethyl)tetrahydrofuran-2-carbonyl]amino]-N-methyl-pyridine-2-carboxamide]	> 1	
CNC(=O)c1cc(NC(=O)[C@H]2O[C@@](C)(C(F)(F)F)[C@H](C)[C@@H]2c2ccc(F)c(F)c2OC(F)F)ccn1 (stereo in doubt) [Compound 13, rel-(2S,3R,4R,5R)-4-[[3-[2-(difluoromethoxy)-3,4-difluoro-phenyl]-4,5-dimethyl-5-(trifluoromethyl)tetrahydrofuran-2-carbonyl]amino]-N-methyl-pyridine-2-carboxamide]	0.01 to 0.1	
Cc1c(F)ccc([C@H]2[C@H](C(=O)Nc3ccnc(C(N)=O)c3)O[C@@](C)(C(F)(F)F)[C@H]2C)c1OC(F)F (stereo in doubt) [Compound 16, rel-(2R,3S,4S,5R)-4-[[3-[2-(difluoromethoxy)-4-fluoro-3-methyl-phenyl]-4,5-dimethyl-5-(trifluoromethyl)tetrahydrofuran-2-carbonyl]amino]pyridine-2-carboxamide]	> 1	
Cc1c(F)ccc([C@H]2[C@H](C(=O)Nc3ccnc(C(N)=O)c3)O[C@@](C)(C(F)(F)F)[C@H]2C)c1OC(F)F (stereo in doubt) [Compound 17, rel-(2R,3S,4S,5R)-4-[[3-[2-(difluoromethoxy)-4-fluoro-3-methyl-phenyl]-4,5-dimethyl-5-(trifluoromethyl)tetrahydrofuran-2-carbonyl]amino]pyridine-2-carboxamide]	< 0.01	
CC[C@@]1(C(F)(F)F)C[C@H](c2ccc(F)c(F)c2OC)[C@@H](C(=O)Nc2ccnc(C(N)=O)c2)O1 (stereo in doubt) [Compound 63, rel-(2S,3R,5S)-4-[[3-(3,4-difluoro-2-methoxy-phenyl)-5-ethyl-5-(trifluoromethyl)tetrahydrofuran-2-carbonyl]amino]pyridine-2-carboxamide]	> 1	
